Reference: patent US10450316B2, “Certain protein kinase inhibitor” (Chongqing Fochon Pharmaceutical Co., Ltd., priority 2015, dated 2019)

System: BE(2)-C cell
Assay: Cell proliferation assay (MTS) in BE(2)-C cells
Type: cell-based
Details: Homo sapiens, inhibition of BE(2)-C cell proliferation, 48 h
Summary of the method: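 BE(2)-C cells (3000/well, DMEM + 10% FBS) were treated for 48 h at 37 °C with compound at 1.5–10000 nM in nine concentrations. Viability was measured by MTS (2 h, stopped with SDS) at 490/650 nm, and IC50 was calculated from the dose-response.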

Compound	IC50 [nM]
CN1CCC2(CC1)CCN(Cc1ccc(Nc3ncc(F)c(-c4cc(F)c5nc6n(c5c4)[C@H](C(F)(F)F)CC6)n3)nc1)CC2 [Example 71, (S)-5-fluoro-4-(5-fluoro-1-(trifluoromethyl)-2,3-dihydro-1H-benzo[d]pyrrolo[1,2-a]imidazol-7-yl)-N-(5-((9-methyl-3,9-diazaspiro[5.5]undecan-3-yl)methyl)pyridin-2-yl)pyrimidin-2-amine]	10 to 100
CCN1CCC2(CC1)CCN(Cc1ccc(Nc3ncc(F)c(-c4cc(F)c5nc6n(c5c4)[C@H](C(F)(F)F)CC6)n3)nc1)CC2 [Example 72, (S)-N-(5-((9-ethyl-3,9-diazaspiro[5.5]undecan-3-yl)methyl)pyridin-2-yl)-5-fluoro-4-(5-fluoro-1-(trifluoromethyl)-2,3-dihydro-1H-benzo[d]pyrrolo [1,2-a]imidazol-7-yl)pyrimidin-2-amine]	10 to 100
Fc1cnc(Nc2ccc(CN3CC4CNCC4C3)cn2)nc1-c1cc(F)c2nc3n(c2c1)[C@H](C(F)(F)F)CC3 (stereo partly drawn) [Example 73, 5-fluoro-4-((5)-5-fluoro-1-(trifluoromethyl)-2,3-dihydro-1H-benzo[d]pyrrolo[1,2-a]imidazol-7-yl)-N-(5-((hexahydropyrrolo[3,4-c]pyrrol-2(1H)-yl)methyl)pyridin-2-yl)pyrimidin-2-amine]	> 100
CN1CC2CN(Cc3ccc(Nc4ncc(F)c(-c5cc(F)c6nc7n(c6c5)[C@H](C(F)(F)F)CC7)n4)nc3)CC2C1 (stereo partly drawn) [Example 74, 5-fluoro-4-((S)-5-fluoro-1-(trifluoromethyl)-2,3-dihydro-1H-benzo[d]pyrrolo[1,2-a]imidazol-7-yl)-N-(5-((5-methylhexahydropyrrolo[3,4-c]pyrrol-2(1H)-yl)methyl)pyridin-2-yl)pyrimidin-2-amine]	10 to 100
CCN1CC2CN(Cc3ccc(Nc4ncc(F)c(-c5cc(F)c6nc7n(c6c5)[C@H](C(F)(F)F)CC7)n4)nc3)CC2C1 (stereo partly drawn) [Example 75, N-(5-((5-ethylhexahydropyrrolo[3,4-c]pyrrol-2(1H)-yl)methyl)pyridin-2-yl)-5-fluoro-4-((S)-5-fluoro-1-(trifluoromethyl)-2,3-dihydro-1H-benzo[d]pyrrolo[1,2-a]imidazol-7-yl)pyrimidin-2-amine]	10 to 100
Fc1cnc(Nc2ccc(CN3C4CCC3CNC4)cn2)nc1-c1cc(F)c2nc3n(c2c1)[C@H](C(F)(F)F)CC3 [Example 76, N-(5-((3,8-diazabicyclo[3.2.1]octan-8-yl)methyl)pyridin-2-yl)-5-fluoro-4-((S)-5-fluoro-1-(trifluoro-methyl)-2,3-dihydro-1H-benzo[d]pyrrolo[1,2-a]imidazol-7-yl)pyrimidin-2-amine]	10 to 100
CN1CC2CCC(C1)N2Cc1ccc(Nc2ncc(F)c(-c3cc(F)c4nc5n(c4c3)[C@H](C(F)(F)F)CC5)n2)nc1 [Example 77, 5-fluoro-4-((S)-5-fluoro-1-(trifluoromethyl)-2,3-dihydro-1H-benzo[d]pyrrolo[1,2-a]imidazol-7-yl)-N-(5-((3-methyl-3,8-diazabicyclo[3.2.1]octan-8-yl)methyl)pyridin-2-yl)pyrimidin-2-amine]	10 to 100
CCN1CC2CCC(C1)N2Cc1ccc(Nc2ncc(F)c(-c3cc(F)c4nc5n(c4c3)[C@H](C(F)(F)F)CC5)n2)nc1 [Example 78, N-(5-((3-ethyl-3,8-diazabicyclo[3.2.1]octan-8-yl)methyl)pyridin-2-yl)-5-fluoro-4-((S)-5-fluoro-1-(trifluoromethyl)-2,3-dihydro-1H-benzo[d]pyrrolo [1,2-a]imidazol-7-yl)pyrimidin-2-amine]	10 to 100
Fc1cnc(Nc2ccc(CN3CC4CCC(C3)N4)cn2)nc1-c1cc(F)c2nc3n(c2c1)[C@H](C(F)(F)F)CC3 [Example 79, N-(5-((3,8-diazabicyclo[3.2.1]octan-3-yl)methyl)pyridin-2-yl)-5-fluoro-4-((S)-5-fluoro-1-(trifluoro-methyl)-2,3-dihydro-1H-benzo[d]pyrrolo[1,2-a]imidazol-7-yl)pyrimidin-2-amine]	10 to 100
CN1C2CCC1CN(Cc1ccc(Nc3ncc(F)c(-c4cc(F)c5nc6n(c5c4)[C@H](C(F)(F)F)CC6)n3)nc1)C2 [Example 80, 5-fluoro-4-((S)-5-fluoro-1-(trifluoromethyl)-2,3-dihydro-1H-benzo[d]pyrrolo[1,2-a]imidazol-7-yl)-N-(5-((8-methyl-3,8-diazabicyclo[3.2.1]octan-3-yl)methyl)pyridin-2-yl)pyrimidin-2-amine]	10 to 100
CCN1C2CCC1CN(Cc1ccc(Nc3ncc(F)c(-c4cc(F)c5nc6n(c5c4)[C@H](C(F)(F)F)CC6)n3)nc1)C2 [Example 81, N-(5-((8-ethyl-3,8-diazabicyclo[3.2.1]octan-3-yl)methyl)pyridin-2-yl)-5-fluoro-4-((S)-5-fluoro-1-(trifluoromethyl)-2,3-dihydro-1H-benzo[d]pyrrolo [1,2-a]imidazol-7-yl)pyrimidin-2-amine]	10 to 100
C[C@@H]1CCc2nc3c(F)cc(-c4nc(Nc5ccc(CN6CCNCC6)cn5)ncc4F)cc3n21 [Example 82, (R)-5-fluoro-4-(5-fluoro-1-methyl-2,3-dihydro-1H-benzo[d]pyrrolo[1,2-a]imidazol-7-yl)-N-(5-(piperazin-1-ylmethyl)pyridin-2-yl)pyrimidin-2-amine]	10 to 100
C[C@@H]1CCc2nc3c(F)cc(-c4nc(Nc5ccc(CN6CCN7CCC[C@@H]7C6)cn5)ncc4F)cc3n21 [Example 85, 5-fluoro-4-((R)-5-fluoro-1-methyl-2,3-dihydro-1H-benzo[d]pyrrolo[1,2-a]imidazol-7-yl)-N-(5-(((R)-hexahydropyrrolo[1,2-a]pyrazin-2(1H)-yl)methyl)pyridin-2-yl)pyrimidin-2-amine]	10 to 100
C[C@@H]1CCc2nc3c(F)cc(-c4nc(Nc5ccc(CN6CCC7(CC6)CNC7)cn5)ncc4F)cc3n21 [Example 86, (R)-N-(5-((2,7-diazaspiro[3.5]nonan-7-yl)methyl)pyridin-2-yl)-5-fluoro-4-(5-fluoro-1-methyl-2,3-dihydro-1H-benzo[d]pyrrolo[1,2-a]imidazol-7-yl)pyrimidin-2-amine]	> 100
C[C@@H]1CCc2nc3c(F)cc(-c4nc(Nc5ccc(CN6CCC7(CC6)CN(C)C7)cn5)ncc4F)cc3n21 [Example 87, (R)-5-fluoro-4-(5-fluoro-1-methyl-2,3-dihydro-1H-benzo[d]pyrrolo[1,2-a]imidazol-7-yl)-N-(5-((2-methyl-2,7-diazaspiro[3.5]nonan-7-yl)methyl)pyridin-2-yl)pyrimidin-2-amine]	10 to 100
CCN1CC2(CCN(Cc3ccc(Nc4ncc(F)c(-c5cc(F)c6nc7n(c6c5)[C@H](C)CC7)n4)nc3)CC2)C1 [Example 88, (R)-N-(5-((2-ethyl-2,7-diazaspiro[3.5]nonan-7-yl)methyl)pyridin-2-yl)-5-fluoro-4-(5-fluoro-1-methyl-2,3-dihydro-1H-benzo[d]pyrrolo[1,2-a]imidazol-7-yl)pyrimidin-2-amine]	10 to 100
C[C@@H]1CCc2nc3c(F)cc(-c4nc(Nc5ccc(CN6CC7(CCNCC7)C6)cn5)ncc4F)cc3n21 [Example 89, (R)-N-(5-((2,7-diazaspiro[3.5]nonan-2-yl)methyl)pyridin-2-yl)-5-fluoro-4-(5-fluoro-1-methyl-2,3-dihydro-1H-benzo[d]pyrrolo[1,2-a]imidazol-7-yl)pyrimidin-2-amine]	> 100
C[C@@H]1CCc2nc3c(F)cc(-c4nc(Nc5ccc(CN6CC7(CCN(C)CC7)C6)cn5)ncc4F)cc3n21 [Example 90, (R)-5-fluoro-4-(5-fluoro-1-methyl-2,3-dihydro-1H-benzo[d]pyrrolo[1,2-a]imidazol-7-yl)-N-(5-((7-methyl-2,7-diazaspiro[3.5]nonan-2-yl)methyl)pyridin-2-yl)pyrimidin-2-amine]	10 to 100
CCN1CCC2(CC1)CN(Cc1ccc(Nc3ncc(F)c(-c4cc(F)c5nc6n(c5c4)[C@H](C)CC6)n3)nc1)C2 [Example 91, (R)-N-(5-((7-ethyl-2,7-diazaspiro[3.5]nonan-2-yl)methyl)pyridin-2-yl)-5-fluoro-4-(5-fluoro-1-methyl-2,3-dihydro-1H-benzo[d]pyrrolo[1,2-a]imidazol-7-yl)pyrimidin-2-amine]	10 to 100
C[C@@H]1CCc2nc3c(F)cc(-c4nc(Nc5ccc(CN6CCC7(CCNCC7)CC6)cn5)ncc4F)cc3n21 [Example 92, (R)-N-(5-((3,9-diazaspiro[5.5]undecan-3-yl)methyl)pyridin-2-yl)-5-fluoro-4-(5-fluoro-1-methyl-2,3-dihydro-1H-benzo[d]pyrrolo[1,2-a]imidazol-7-yl)pyrimidin-2-amine]	> 100
C[C@@H]1CCc2nc3c(F)cc(-c4nc(Nc5ccc(CN6CCC7(CCN(C)CC7)CC6)cn5)ncc4F)cc3n21 [Example 93, (R)-5-fluoro-4-(5-fluoro-1-methyl-2,3-dihydro-1H-benzo[d]pyrrolo[1,2-a]imidazol-7-yl)-N-(5-((9-methyl-3,9-diazaspiro[5.5]undecan-3-yl)methyl)pyridin-2-yl)pyrimidin-2-amine]	> 100
CCN1CCC2(CC1)CCN(Cc1ccc(Nc3ncc(F)c(-c4cc(F)c5nc6n(c5c4)[C@H](C)CC6)n3)nc1)CC2 [Example 94, (R)-N-(5-((9-ethyl-3,9-diazaspiro[5.5]undecan-3-yl)methyl)pyridin-2-yl)-5-fluoro-4-(5-fluoro-1-methyl-2,3-dihydro-1H-benzo[d]pyrrolo[1,2-a]imidazol-7-yl)pyrimidin-2-amine]	> 100
C[C@@H]1CCc2nc3c(F)cc(-c4nc(Nc5ccc(CN6CC7(CNC7)C6)cn5)ncc4F)cc3n21 [Example 95, (R)-N-(5-((2,6-diazaspiro[3.3]heptan-2-yl)methyl)pyridin-2-yl)-5-fluoro-4-(5-fluoro-1-methyl-2,3-dihydro-1H-benzo[d]pyrrolo[1,2-a]imidazol-7-yl)pyrimidin-2-amine]	> 1000
C[C@@H]1CCc2nc3c(F)cc(-c4nc(Nc5ccc(CN6CC7(CN(C)C7)C6)cn5)ncc4F)cc3n21 [Example 96, (R)-5-fluoro-4-(5-fluoro-1-methyl-2,3-dihydro-1H-benzo[d]pyrrolo[1,2-a]imidazol-7-yl)-N-(5-((6-methyl-2,6-diazaspiro[3.3]heptan-2-yl)methyl)pyridin-2-yl)pyrimidin-2-amine]	> 100
